Assay results published in PubChem BioAssay AID248 (DTP/NCI, 2004).
Inconclusive results and toxic doses are left out. Rule as the data show it: active = T/C of 150% or more; inactive = T/C below 125%.

Tested on: L1210 leukemia ip in BDF1 mice, survival T/C
Assay: NCI In Vivo Anticancer Drug Screen. Data for tumor model L1210 Leukemia (intraperitoneal) in B6D2F1 (BDF1) mice
Conditions: endpoint: mean survival time, higher = longer survival
Outline: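 In this screen, tumor-bearing mice given compound are compared to those given vehicle, and their survival values are reported as a treated-to-control quotient.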

[1] = dose: 50.0 mg/kg/injection, schedule: Q04DX003 (ip), vehicle: Klucel (hydroxypropylcellulose) (HPC)
[2] = dose: 100.0 mg/kg/injection, schedule: Q01DX001 (ip), vehicle: other
[3] = dose: 200.0 mg/kg/injection, schedule: Q01DX001 (ip), vehicle: other
[4] = dose: 400.0 mg/kg/injection, schedule: Q01DX001 (ip), vehicle: other
[5] = dose: 100.0 mg/kg/injection, schedule: Q01DX001 (ip), vehicle: saline
[6] = dose: 200.0 mg/kg/injection, schedule: Q01DX001 (ip), vehicle: saline
[7] = dose: 6.25 mg/kg/injection, schedule: Q01DX009 (ip), vehicle: saline
[8] = dose: 12.5 mg/kg/injection, schedule: Q01DX009 (ip), vehicle: saline
[9] = dose: 25.0 mg/kg/injection, schedule: Q01DX009 (ip), vehicle: saline
[10] = dose: 100.0 mg/kg/injection, schedule: Q04DX003 (ip), vehicle: saline with Tween-80
[11] = dose: 200.0 mg/kg/injection, schedule: Q04DX003 (ip), vehicle: saline with Tween-80
[12] = dose: 400.0 mg/kg/injection, schedule: Q04DX003 (ip), vehicle: saline with Tween-80
[13] = dose: 100.0 mg/kg/injection, schedule: Q04DX002 (ip), vehicle: saline with Tween-80
[14] = dose: 200.0 mg/kg/injection, schedule: Q04DX002 (ip), vehicle: saline with Tween-80
[15] = dose: 400.0 mg/kg/injection, schedule: Q04DX002 (ip), vehicle: saline with Tween-80
[16] = dose: 100.0 mg/kg/injection, schedule: Q01DX001 (ip), vehicle: carboxymethylcellulose (CMC)
[17] = dose: 200.0 mg/kg/injection, schedule: Q01DX001 (ip), vehicle: carboxymethylcellulose (CMC)
[18] = dose: 100.0 mg/kg/injection, schedule: Q01DX009 (ip), vehicle: gum acacia
[19] = dose: 100.0 mg/kg/injection, schedule: Q04DX003 (ip), vehicle: gum acacia
[20] = dose: 200.0 mg/kg/injection, schedule: Q01DX009 (ip), vehicle: gum acacia
[21] = dose: 200.0 mg/kg/injection, schedule: Q04DX003 (ip), vehicle: gum acacia
[22] = dose: 400.0 mg/kg/injection, schedule: Q01DX009 (ip), vehicle: gum acacia
[23] = dose: 400.0 mg/kg/injection, schedule: Q04DX003 (ip), vehicle: gum acacia
[24] = dose: 100.0 mg/kg/injection, schedule: Q04DX002 (ip), vehicle: Klucel (hydroxypropylcellulose) (HPC)
[25] = dose: 200.0 mg/kg/injection, schedule: Q04DX002 (ip), vehicle: Klucel (hydroxypropylcellulose) (HPC)
[26] = dose: 400.0 mg/kg/injection, schedule: Q04DX002 (ip), vehicle: Klucel (hydroxypropylcellulose) (HPC)

Measured: T/C

O=C(Nc1ccc(NC2=NCCN2)cc1)c1cc(Cl)cc(C(=O)Nc2ccc(NC3=NCCN3)cc2)c1
inactive: dose: 7.5 mg/kg/injection, schedule: Q01DX010 (ip), vehicle: saline 100 % of control | dose: 15.0 mg/kg/injection, schedule: Q01DX010 (ip), vehicle: saline 95 % of control | dose: 15.0 mg/kg/injection, schedule: Q01DX Z (ip), vehicle: saline 105 % of control | dose: 30.0 mg/kg/injection, schedule: Q01DX Z (ip), vehicle: saline 105 % of control

Cc1ccc(N=Nc2ccc(C)cc2NC(=O)/C=C/c2ccccc2)cc1
inactive: dose: 50.0 mg/kg/injection, schedule: Q01DX009 (ip), vehicle: saline with Tween-80 96 % of control | dose: 100.0 mg/kg/injection, schedule: Q01DX009 (ip), vehicle: saline with Tween-80 90 % of control | dose: 200.0 mg/kg/injection, schedule: Q01DX009 (ip), vehicle: saline with Tween-80 86 % of control

O=Cc1cc(Br)c(O)c(Br)c1
inactive: [1] 100 % of control | dose: 100.0 mg/kg/injection, schedule: Q04DX003 (ip), vehicle: Klucel (hydroxypropylcellulose) (HPC) 101 % of control | dose: 200.0 mg/kg/injection, schedule: Q04DX003 (ip), vehicle: Klucel (hydroxypropylcellulose) (HPC) 100 % of control

N#CC1(OC2OC(CO)C(O)C(O)C2O)C=CC(O)C1O (stereo unspecified)
inactive: dose: 100.0 mg/kg/injection, schedule: Q04DX003 (ip), vehicle: saline 98 % of control | dose: 200.0 mg/kg/injection, schedule: Q04DX003 (ip), vehicle: saline 105 % of control | dose: 400.0 mg/kg/injection, schedule: Q04DX003 (ip), vehicle: saline 96 % of control

CCCCCCCCCCCCC/C=N\NC(=O)CCCC(=O)N/N=C/CCCCCCCCCCCCC
inactive: dose: 50.0 mg/kg/injection, schedule: Q01DX001 (ip), vehicle: other 93 % of control | [2] 91 % of control | [3] 93 % of control | [4] 98 % of control

Cc1cc(Cl)nc2ccc(Cc3ccc(Br)cc3)cc12
inactive: [5] 95 % of control | [6] 96 % of control | dose: 400.0 mg/kg/injection, schedule: Q01DX001 (ip), vehicle: saline 91 % of control

CC[CH2][Pb]([Cl])([CH2]CC)[CH2]CC
inactive: dose: 12.5 mg/kg/injection, schedule: Q04DX003 (ip), vehicle: Klucel (hydroxypropylcellulose) (HPC) 106 % of control | dose: 25.0 mg/kg/injection, schedule: Q04DX003 (ip), vehicle: Klucel (hydroxypropylcellulose) (HPC) 95 % of control | [1] 90 % of control

C=C1CC[N+]2(CCCCCC)CCCC12 (stereo unspecified)
inactive: [7] 97 % of control | [8] 91 % of control | [9] 103 % of control

CC1=NN(c2cccc(S(=O)(=O)O)c2)C(=O)C1
inactive: [10] 105 % of control | [11] 101 % of control | [12] 89 % of control

CCc1cccc(CC)c1NC(=O)CS
inactive: [10] 94 % of control | [11] 95 % of control

O=[N+]([O-])c1cncc([N+](=O)[O-])c1NCc1ccccc1
inactive: [10] 103 % of control | [11] 93 % of control | [12] 104 % of control

[CH3][Ge]([CH3])([CH3])[CH2]CCl
inactive: [13] 98 % of control | [14] 91 % of control | [15] 98 % of control

O=C(/C=C/c1ccc2c(c1)OCO2)c1ccc2ccccc2c1
inactive: dose: 100.0 mg/kg/injection, schedule: Q04DX002 (ip), vehicle: gum acacia 103 % of control | dose: 200.0 mg/kg/injection, schedule: Q04DX002 (ip), vehicle: gum acacia 96 % of control | dose: 400.0 mg/kg/injection, schedule: Q04DX002 (ip), vehicle: gum acacia 92 % of control

CC12CCC(CC1Cl)C2 (stereo unspecified)
inactive: dose: 50.0 mg/kg/injection, schedule: Q01DX001 (ip), vehicle: carboxymethylcellulose (CMC) 93 % of control | [16] 91 % of control | [17] 91 % of control | dose: 400.0 mg/kg/injection, schedule: Q01DX001 (ip), vehicle: carboxymethylcellulose (CMC) 96 % of control

Cn1c(=O)[nH]c(=O)c2[nH]c(CO)nc21
inactive: [16] 100 % of control | [17] 102 % of control

NC(CSC(c1ccccc1)(c1ccccc1)c1ccc2ccccc2c1)C(=O)O (stereo unspecified)
inactive: dose: 0.74 mg/kg/injection, schedule: Q01DX009 (ip), vehicle: saline 124 % of control | [8] 108 % of control | dose: 25.0 mg/kg/injection, schedule: Q01DX009 (ip), vehicle: other 94 % of control | dose: 50.0 mg/kg/injection, schedule: Q01DX009 (ip), vehicle: saline 103 % of control
active: dose: 3.13 mg/kg/injection, schedule: Q01DX009 (ip), vehicle: saline 159 % of control | [7] 187 % of control | dose: 6.3 mg/kg/injection, schedule: Q01DX009 (ip), vehicle: other 166 % of control | [9] 225 % of control

COc1cc(C(=O)NN2C(N)=NC(N)=NC2(C)C)cc(OC)c1OC
inactive: dose: 100.0 mg/kg/injection, schedule: Q04DX003 (ip), vehicle: saline sonified 105 % of control | dose: 200.0 mg/kg/injection, schedule: Q04DX003 (ip), vehicle: saline sonified 101 % of control | dose: 400.0 mg/kg/injection, schedule: Q04DX003 (ip), vehicle: saline sonified 106 % of control

CCCCCCCC(=O)Nc1cc2c3c(c1)CCCN3CCC2
inactive: dose: 50.0 mg/kg/injection, schedule: Q04DX003 (ip), vehicle: saline with Tween-80 103 % of control | [10] 97 % of control | [11] 103 % of control

Cc1ccc(C)c(NC(=O)Nc2ccc(Cl)cc2)c1
inactive: [18] 96 % of control | [19] 98 % of control | [20] 100 % of control | [21] 90 % of control | [22] 96 % of control | [23] 95 % of control

Cc1sc2ccccc2[n+]1CCC(=O)O
inactive: [18] 94 % of control | [19] 95 % of control | [20] 101 % of control | [21] 96 % of control | [22] 100 % of control | [23] 95 % of control

N#CCCN(C(=O)Nc1ccc(Cl)c(Cl)c1)C1CCCCC1
inactive: [24] 107 % of control | [25] 100 % of control | [26] 111 % of control

CCCCc1nc2c(c(=O)n(C)c(=O)n2C)n1C
inactive: dose: 50.0 mg/kg/injection, schedule: Q01DX001 (ip), vehicle: saline 96 % of control | [5] 96 % of control | [6] 102 % of control

CCCc1nc2ccccc2c(=O)n1/N=C/c1ccc(Cl)cc1Cl
inactive: [24] 96 % of control | [25] 92 % of control | [26] 103 % of control

[O-][n+]1c2ccccc2c(Cl)c2ccc3ccccc3c21
inactive: [13] 93 % of control | [14] 90 % of control | [15] 90 % of control

Oc1ccc2c(c1)CCc1cn[nH]c1-2
inactive: [2] 102 % of control | dose: 100.0 mg/kg/injection, schedule: Q01DX009 (ip), vehicle: other 98 % of control | [3] 103 % of control | dose: 200.0 mg/kg/injection, schedule: Q01DX009 (ip), vehicle: other 96 % of control | [4] 98 % of control | dose: 400.0 mg/kg/injection, schedule: Q01DX009 (ip), vehicle: other 94 % of control

CCCCCCCCC1NC1CCCCCCCC(=O)OC (stereo unspecified)
inactive: dose: 25.0 mg/kg/injection, schedule: Q04DX002 (ip), vehicle: Klucel (hydroxypropylcellulose) (HPC) 101 % of control | dose: 50.0 mg/kg/injection, schedule: Q04DX002 (ip), vehicle: Klucel (hydroxypropylcellulose) (HPC) 107 % of control | [24] 98 % of control

Nc1ccc2ncccc2c1N
inactive: dose: 100.0 mg/kg/injection, schedule: Q04DX002 (ip), vehicle: saline 107 % of control | dose: 200.0 mg/kg/injection, schedule: Q04DX002 (ip), vehicle: saline 100 % of control | dose: 400.0 mg/kg/injection, schedule: Q04DX002 (ip), vehicle: saline 87 % of control
